Test system: LAPC9-AI androgen-independent prostate tumor xenografts
Test: Established LAPC9-AI prostate tumor xenografts in tibiae, monotherapy and combination with Carboplatin
Assay type: in vivo, mouse
Settings: day 33, vs control antibody; MAb 2 mg loading then 1.0 mg i.p. twice weekly, 7 doses; Carboplatin 40 mg/kg i.v. days 7, 11, 15, 19, 22, 26
Description: FIG. 16. […] The tumors were allowed to establish for 7 days, at which time the animals were randomized and assigned to four different groups (n=10 in each group) as indicated in the graph. […] Carboplatin (40 mg/kg) was administered to the mice intravenously (i.v.) on days 7, 11, 15, 19, 22 and 26. On day 33 all mice were sacrificed and the tumors were excised and weighed on an electronic balance.
The tumors were allowed to establish for 7 days, at which time the animals were randomized and assigned to four different groups (n=10 in each group). […] Carboplatin (40 mg/kg) was administered to the mice intravenously (i.v.) on days 7, 11, 15, 19, 22 and 26. On day 33 all mice were sacrificed and the tumors were excised and weighed on an electronic balance.

N.N.O=C([O-])C1(C(=O)[O-])CCC1.[Pt+2] [Carboplatin]
inhibition of tumor growth (tumor weight): 87%

Reference: patent US20090068098A1, “ANTIBODIES AND RELATED MOLECULES THAT BIND TO 58P1D12 PROTEINS” (priority 2007, published 2009)
